Source: ChEMBL document CHEMBL1201862, “PubChem BioAssay data set” (2004)
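Values below derive from 48-hour exposures of cells grown in 96-well plates, with endpoints linearly interpolated between the two concentrations bracketing the appropriate inhibition level. At the GI50, growth is halved.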 The source made the active and inactive calls. Cut-off read from the data, not from the text of the source: active = GI50 up to about 1.1 µM and inactive = higher.

Key:
Assay in all cases: inhibition of tumour cell growth, NCI panel, 48 h
[1] = tested on: HOP-62
[2] = tested on: SK-OV-3
[3] = tested on: HT-29
[4] = tested on: 786-0
[5] = tested on: RPMI-8226
[6] = tested on: UO-31
[7] = tested on: OVCAR-5
[8] = tested on: NCI-H460
[9] = tested on: SF-539
[10] = tested on: IGROV-1
[11] = tested on: MOLT-4
[12] = tested on: SF-268
[13] = tested on: LOX IMVI
[14] = tested on: K562
[15] = tested on: SK-MEL-28
[16] = tested on: TK-10
[17] = tested on: HCT-15
[18] = tested on: OVCAR-4

Measured: GI50

CCOC(=O)C1(C(=O)OCC)OC(=O)NC2=C1CCCC2
inactive: [1] > 100 µM | [2] > 100 µM | [3] > 100 µM | [4] > 100 µM | [5] > 100 µM | [6] > 100 µM | [7] > 100 µM | [8] > 100 µM | [9] > 100 µM | [10] > 100 µM | [11] > 100 µM | [12] > 100 µM | [13] > 100 µM | [14] > 100 µM | [15] > 100 µM | [16] > 100 µM

CC(=O)Nc1ccccc1Sc1ccccc1
inactive: [1] > 100 µM | [2] > 100 µM | [3] > 100 µM | [4] > 100 µM | [5] > 100 µM | [6] 28.6 µM | [7] > 100 µM | [8] > 100 µM | [9] > 100 µM | [10] > 100 µM | [11] > 100 µM | [12] 72.9 µM | [13] > 100 µM | [14] > 100 µM | [15] > 100 µM | [16] > 100 µM | [18] > 100 µM
> 100 µM: [17]

OC1/C(=C/c2ccccc2)CNC/C1=C\c1ccccc1 (stereo unspecified)
> 100 µM: [17]
inactive: [1] > 100 µM | [2] > 100 µM | [3] 89.7 µM | [4] > 100 µM | [5] > 100 µM | [6] 87.5 µM | [7] > 100 µM | [8] > 100 µM | [9] > 100 µM | [10] > 100 µM | [11] > 100 µM | [12] > 100 µM | [13] > 100 µM | [15] > 100 µM | [16] > 100 µM | [18] > 100 µM

CC1SC2=NC3=C(c4ccccc4C3=O)C(c3ccc(Br)cc3)N2C1=O (stereo unspecified)
inactive: [1] > 100 µM | [2] > 100 µM | [3] > 100 µM | [4] 64.4 µM | [5] 31.6 µM | [6] 8.47 µM | [7] > 100 µM | [8] > 100 µM | [10] > 100 µM | [11] 31.6 µM | [12] 37.9 µM | [14] 44.6 µM | [15] 43 µM | [16] > 100 µM | [18] 41.4 µM
52.2 µM: [17]

O=Cc1ccc2c(c1-c1c(C=O)ccc3c1OCO3)OCO2
> 100 µM: [17]
inactive: [1] > 100 µM | [2] > 100 µM | [3] > 100 µM | [4] > 100 µM | [5] 96.6 µM | [6] > 100 µM | [7] > 100 µM | [8] > 100 µM | [9] > 100 µM | [10] > 100 µM | [11] > 100 µM | [12] > 100 µM | [14] > 100 µM | [15] > 100 µM | [16] > 100 µM | [18] > 100 µM

O=[N+]([O-])c1nccn1CC(O)c1ccc(F)cc1 (stereo unspecified)
> 100 µM: [17]
inactive: [1] > 100 µM | [2] > 100 µM | [3] > 100 µM | [4] > 100 µM | [5] > 100 µM | [6] > 100 µM | [7] > 100 µM | [8] > 100 µM | [9] > 100 µM | [10] > 100 µM | [11] > 100 µM | [12] > 100 µM | [13] > 100 µM | [14] > 100 µM | [15] > 100 µM | [16] > 100 µM | [18] > 100 µM

Cn1c(=O)nc2n(-c3cccc(Br)c3)c3ccccc3nc-2c1=O
inactive: [1] 14.8 µM | [2] 21.3 µM | [3] 2.82 µM | [4] 3.71 µM | [5] 4.57 µM | [6] 12.9 µM | [7] 13.3 µM | [8] 2.96 µM | [9] 5.42 µM | [10] 7.76 µM | [12] 8.91 µM | [14] 5.16 µM | [16] 11.3 µM | [18] 3.71 µM
4.06 µM: [17]

CCCCCN(CCCCC)C(=O)[C@@H](CCC(=O)OCc1ccccc1)NC(=O)c1cc2ccccc2[nH]1
> 100 µM: [17]
inactive: [1] > 100 µM | [2] > 100 µM | [3] > 100 µM | [4] > 100 µM | [6] > 100 µM | [7] > 100 µM | [8] > 100 µM | [9] > 100 µM | [10] > 100 µM | [12] > 100 µM | [13] > 100 µM | [14] 5.55 µM | [15] > 100 µM | [18] > 100 µM

C#CC1(O)c2ccccc2C(=O)c2ccccc21
inactive: [1] > 100 µM | [3] > 100 µM | [4] > 100 µM | [7] > 100 µM | [8] > 100 µM | [9] > 100 µM | [10] 11.8 µM | [11] > 100 µM | [12] > 100 µM | [13] > 100 µM | [14] > 100 µM | [15] > 100 µM | [16] > 100 µM | [18] > 100 µM

N#CCCCCCOCCOCCOCCOCCOCCCCCC#N
> 100 µM: [17]
inactive: [1] > 100 µM | [2] > 100 µM | [3] > 100 µM | [4] > 100 µM | [6] > 100 µM | [7] > 100 µM | [8] > 100 µM | [10] > 100 µM | [11] > 100 µM | [12] > 100 µM | [13] > 100 µM | [14] 68.5 µM | [15] > 100 µM | [16] > 100 µM | [18] > 100 µM

COc1cc2c(c(OC)c1OC)-c1ccc(SC)c(=O)cc1[C@@H](NC(=O)c1cccc([N+](=O)[O-])c1)CC2
active: [1] 0.0257 µM | [2] 0.021 µM | [3] 0.0241 µM | [4] 0.0351 µM | [5] 0.0208 µM | [6] 0.0516 µM | [9] 0.0171 µM | [10] 0.0288 µM | [11] 0.0202 µM | [12] 0.0214 µM | [14] < 0.01 µM | [15] 0.0414 µM | [16] 0.047 µM
inactive: [7] > 100 µM | [18] 13.1 µM

COCC(OC)C(CC=C(C#N)C#N)OC (stereo unspecified)
> 100 µM: [17]
inactive: [1] > 100 µM | [2] > 100 µM | [3] > 100 µM | [4] > 100 µM | [5] > 100 µM | [6] > 100 µM | [7] > 100 µM | [9] > 100 µM | [10] > 100 µM | [11] > 100 µM | [12] > 100 µM | [13] > 100 µM | [14] > 100 µM | [15] > 100 µM | [16] > 100 µM | [18] > 100 µM

CSc1nc(-c2ccccc2)c2c(n1)-c1ccccc1CC2
inactive: [1] > 100 µM | [2] > 100 µM | [3] 52 µM | [4] > 100 µM | [5] > 100 µM | [6] > 100 µM | [7] > 100 µM | [8] > 100 µM | [10] > 100 µM | [11] > 100 µM | [12] > 100 µM | [13] > 100 µM | [14] > 100 µM | [15] > 100 µM | [16] > 100 µM | [18] > 100 µM

CC(C)(O)[C@@H]1CCC(C)([C@H]2[C@@H](O)CC3(C)C4CC(OC5OC(CO)C(O)C(O)C5O)C5C(C)(C)[C@@H](OC6OCC(O)C(O)C6O)CC[C@@]56C[C@@]46CC[C@]23C)O1 (stereo partly specified)
inactive: [2] > 100 µM | [3] > 100 µM | [4] > 100 µM | [5] > 100 µM | [6] > 100 µM | [7] > 100 µM | [8] > 100 µM | [9] > 100 µM | [10] > 100 µM | [11] > 100 µM | [12] > 100 µM | [13] > 100 µM | [14] > 100 µM | [15] > 100 µM | [16] > 100 µM | [18] > 100 µM
> 100 µM: [17]

O=C(Cc1ccccc1)NN1C(=O)C(Cl)C1c1cc(Br)cc(Br)c1O (stereo unspecified)
6.79 µM: [17]
inactive: [1] 14 µM | [2] 15.1 µM | [3] 21.6 µM | [4] 10.1 µM | [5] 6.81 µM | [6] 4.11 µM | [7] 16.1 µM | [8] 3.87 µM | [10] 13.1 µM | [11] 2.62 µM | [12] 3.63 µM | [13] 9.95 µM | [14] 6.44 µM | [15] 10.3 µM | [16] 17.8 µM | [18] 13 µM

COc1ccc2c(c1)CCc1c(-c3n[nH]c4c3CCc3cc(OC)ccc3-4)n[nH]c1-2
inactive: [1] 24 µM | [2] 6.25 µM | [3] 33.2 µM | [4] 19 µM | [6] 40.5 µM | [7] > 100 µM | [8] 39 µM | [9] 24.1 µM | [10] 48.6 µM | [11] 58.6 µM | [12] 37.1 µM | [13] 17.9 µM | [14] 8.89 µM | [15] 33.8 µM | [16] > 100 µM
35.1 µM: [17]

CCOC(=O)CC1=N/C(=N/C(=N)N[N+](=O)[O-])SC1
inactive: [1] > 100 µM | [2] > 100 µM | [3] > 100 µM | [4] > 100 µM | [6] > 100 µM | [7] > 100 µM | [8] > 100 µM | [9] > 100 µM | [10] > 100 µM | [12] > 100 µM | [13] > 100 µM | [14] > 100 µM | [15] > 100 µM | [16] > 100 µM | [18] > 100 µM
> 100 µM: [17]
